Measured values published in patent US4200639A, “Sesbanine and the use thereof in treating leukemic tumors” (The United States of America as represented by the …, priority 1979, dated 1980).
Values after ≈ are worked out from the molar mass of the structure shown.

Columns and labels:
KB Cell = KB Cell Culture Screen (NCI Protocol 1.600); assay type: cell-based
Text: The chemotherapeutic activities of the fractions obtained in the isolation procedure may be determined by a KB Cell Culture Screen in accordance with the National Cancer Institute Protocol 1.600 [Geran et al., Cancer Chemother.

[1] = system: lymphocytic leukemia cells of the strain P388 (PS tumors); experiment: Survival of mice implanted with lymphocytic leukemia P388 (NCI Protocol 1.200); details: mouse, in vivo
Description: The effectiveness of alkaloid compounds against lymphocytic leukemia cells of the strain P388 (PS tumors) implanted in mice is another method of determining activity. These assays are made according to the National Cancer Institute Protocol 1.200 described in Geran et al. referred to above. […] Starting 24 hr. after the tumor implantation, previously determined dosages of each compound were injected intraperitoneally once a day for 9 days. Survival time of treated leukemic mice is compared to that of untreated leukemic mice (T/C×100). A T/C value of 100% indicated no activity.
^2 All mice were male, CD2 F1.
^3 The injection vehicle was saline.
^4 One intraperitoneal injection per day for 9 days.

## O=C1NC(=O)[C@@]2(CC[C@@H](O)C2)c2ccncc21 (relative stereo) [sesbanine, trans-3-hydroxyspiro[cyclopentane-1,4'(1'H)[2,7]naphthyridine]-1',3'(2'H)-dione]
KB Cell; Homo sapiens, KB, 72 h, 3 days after drug addition, active if ED 50 ≤30 μg./ml., read-out: ED 50 (dose that inhibits growth to 50% of control growth)
  IC50: 0.047 µg/mL (≈ 0.202 µM)
KB Cell; among fractions of the respective separation step, Example 1
  activity of fractions during isolation (in words): the most active
[1]
  activity against leukemia in animals (in words): potent activity against leukemia in animals
